In patent publication US12319699B2, “L-proline sulfonamide derivatives comprising pyrazolo[4,3-e]tetrazolo[4,5-b][1,2,4]triazine system, method of manufacturing thereof, uses thereof and pharmaceutical composition comprising the same” (UNIWERSYTET MEDYCZNY W BIALYMSTOKU, priority 2018, dated 2025):

Key:
Format in all cases: cell-based, human
Conditions in all cases: 24 hours
[1] = test system: DLD-1 colorectal cancer cells; test: Induction of apoptosis, Annexin V-FITC / propidium iodide flow cytometry
Method: DLD-1 human colorectal cancer cells (ATCC CCL-221, Manassas, VA, USA) were grown in DMEM (Dulbecco's Modified Eagle's Medium) supplemented with 10% fetal bovine serum (FBS), 2 mM glutamine, 50 U/ml penicillin, 50 μg/ml streptomycin at 37° C., in atmosphere containing 5% of CO2. Then the cells were counted in a hemocytometer and transferred in the amount of 1×10^6 cells per well in 1 ml of culture medium from Costar flasks (Sigma, USA) to Nunc 6-well plates (Wiesbaden, Germany). The cells were transferred using calcium-free phosphate buffer with the addition of 0.05% trypsin and 0.02% EDTA. […] Within the subsequent 24 hours the cells covered at least 80% of the surface of each plate well. The cells prepared in this manner were incubated with the examined compounds for 24 hours and then used for further experiments.
(§1) Induction of apoptosis was examined by a method using fluorescein isothiocyanate-labelled Annexin V (Annexin V-FITC) which forms complexes with phosphatidylserine in the presence of calcium ions. The complexes were determined using FITC Annexin V Apoptosis Detection Kit II (BD Biosciences, USA) and a flow cytometer BD FACSCanto H (BD Biosciences Systems, San Jose, CA, USA). The analysis of results was carried out by means of FACSDiva software (BD Biosciences Systems, San Jose, CA USA).
(§2) DLD-1 and HT-29 cells were incubated for 24 hours in an incubator at 37° C. in a 5% CO2 atmosphere with medium containing the examined compounds according to the invention at specific concentrations. Both examined compounds were used at a concentration of 1.5 μM and 3.0 μM. After the incubation period, the medium was removed, a binding buffer included in the kit was added and the cells were suspended in the buffer. In order to calibrate the apparatus two control samples, i.e. a positive one and a negative one, were prepared. The positive control constituted a reference of control cells in which apoptosis was induced by the addition of 3% formaldehyde. Three control samples were prepared. The first sample contained control cells and propidium iodide, the second sample contained control cells and Annexin V-FITC and the third sample contained control cells, propidium iodide and Annexin V-FITC. After adding 2 μl of 3% formaldehyde the cells were placed in a refrigerator for 10 minutes. Cells that were not treated with any agent constituted the negative control. The cells from the control samples and the cells treated by the examined compounds according to the invention (1×10^6 cells/ml) suspended in the buffer included in the kit were subjected to further examination. 200 μl suspension were taken from each examined sample and were transferred to test tubes. 3 μl Annexin V-FITC and 5 μl propidium iodide (PI) were added to each sample in room temperature and the samples were placed in a dark place for 15 minutes. Cell suspension prepared in this manner was analyzed within one hour in the flow cytometer BD FACSCanto II (BD Biosciences Systems, San Jose, CA, USA) by means of FACSDiva software. The results of the above experiment can be described as follows: live cells (double negative sample—lack of reaction with Annexin V and P), early apoptosis (Annexin V positive and PI negative sample), late apoptosis (Annexin V positive and PI positive sample) and necrosis (Annexin V negative and PI positive sample)

[2] = test system: HT-29 colorectal cancer cells; test: as above
Method: (§3) HT-29 human colorectal cancer cells (ATCC HTB-38, Manassas, VA, USA) were cultured in McCoy's 5A medium supplemented with 10% fetal bovine serum (FBS), 2 mM glutamine, 50 U/ml penicillin, 50 μg/ml of streptomycin at 37° C., in atmosphere containing 5% CO2. Subsequently, the cells were counted in a hemocytometer and were transferred in the amount of 1×10^6 cells per well in 1 ml of culture medium from Costar flasks (Sigma, USA) to Nunc 6-well plates (Wiesbaden, Germany). The cells were transferred using calcium-free phosphate buffer with the addition of 0.05% trypsin and 0.02% EDTA. […] Within the subsequent 24 hours the cells covered at least 80% of the surface of each plate well. The cells prepared in this manner were incubated with the examined compounds for 24 hours and then used for further experiments.
as §1, §2

[3] = test system: HT-29 colorectal cancer cells; test: Decrease in mitochondrial membrane potential, JC-1 MitoScreen flow cytometry
Method: as §3
For the assessment of changes in mitochondrial potential JC-1 MitoScreen kit (BD Biosciences. USA) was used. DLD-1 and HT-29 cancer cells covering about 80% of the plate surface were incubated with the examined compounds according to the invention at specific concentrations in an incubator at 37° C. in 5% CO2 atmosphere for 24 hours. Both examined compounds according to the invention were used at a concentration of 1.5 μM and 3.0 μM. After the incubation period, the medium was removed, the buffer included in the kit was added and the cells after washing two times were suspended in a mixture of JC-1 dye (5,5′,6,6′-tetrachloro-1,1′,3,3′-tetraethylbenzimidazol carbocyanine iodide) with a buffer at a concentration of 10 μg/ml. Subsequently, the samples were incubated in darkness for 15 minutes, washed with PBS solution and subjected to immediate analysis with the use of BD FacsCanto II flow cytometer; the results were assessed with the use of BD FacsDiva software. In live intact cells JC-1 dye accumulates in mitochondria and forms orange fluorescing aggregates. A decrease in mitochondrial potential ΔΨm is characterized by disintegration of these aggregates and green fluorescence.

[4] = HT-29, 1.5 μM, listed as compound of Formula 2
[5] = DLD-1, 3.0 μM, listed as compound of Formula 3

| Compound | Early apoptosis ([1]; DLD-1, 1.5 μM) [%] | Late apoptosis ([1]; DLD-1, 1.5 μM) [%] | Live cells ([1]; DLD-1, 1.5 μM) [%] | Necrosis ([1]; DLD-1, 1.5 μM) [%] | early and late apoptotic cells (total) ([1]; DLD-1, 1.5 μM) [%] | Early apoptosis ([1]; DLD-1, 3.0 μM) [%] | Late apoptosis ([1]; DLD-1, 3.0 μM) [%] | Live cells ([1]; DLD-1, 3.0 μM) [%] | Necrosis ([1]; DLD-1, 3.0 μM) [%] | Early apoptosis ([2]; HT-29, 1.5 μM) [%] | Late apoptosis ([2]; HT-29, 1.5 μM) [%] | Live cells ([2]; HT-29, 1.5 μM) [%] | Necrosis ([2]; HT-29, 1.5 μM) [%] | Early apoptosis ([2]; HT-29, 3.0 μM) [%] | Late apoptosis ([2]; HT-29, 3.0 μM) [%] | Necrosis ([2]; HT-29, 3.0 μM) [%] | decrease of ΔΨm, % of the cell population ([3]; HT-29, 1.5 μM) [%] | decrease of ΔΨm, % of the cell population ([3]; HT-29, 3.0 μM) [%] | further results |
| --- | --- | --- | --- | --- | --- | --- | --- | --- | --- | --- | --- | --- | --- | --- | --- | --- | --- | --- | --- |
| COC(=O)C1CCCN1S(=O)(=O)c1ccc(-n2nc(C)c3nc4nnnn4nc32)cc1 (stereo not drawn) [Compound of Formula 2, Methyl 1-[4-(7-methyl-5H-pyrazol[4,3-e]tetrazolo[4,5-b][1,2,4]triazyn-5-yl)phenylsulfonyl]pyrrolidine-2-carboxylate] | 13.1 | 9.6 | 74.8 | 2.5 | 22.7 | 16.4 | 30.0 | 47.1 | 6.6 | 9.0 | 4.7 | 85.3 | 1.0 | 9.6 | 9.4 | 2.7 | 25.7 | 79.7 | Necrosis ([1]; DLD-1, 1.5 μM, listed as compound of Formula 2): 2.5%; early and late apoptotic cells (total) ([1]; DLD-1, 3.0 μM): 46.4%; Necrosis ([1]; DLD-1, 3.0 μM, listed as compound of Formula 2): 6.6%; Early apoptosis [2, 4]: 9.0%; Late apoptosis [2, 4]: 4.7%; Necrosis [2, 4]: 1.0%; Live cells ([2]; HT-29, 3.0 μM): 78.3%; apoptotic cells (total) ([2]; HT-29, 3.0 μM): 19.0%; Necrosis ([2]; HT-29, 3.0 μM, listed as compound of Formula 2): 2.7% |
| COC(=O)C1CC(O)CN1S(=O)(=O)c1ccc(-n2nc(C)c3nc4nnnn4nc32)cc1 (stereo not drawn) [Compound of Formula 3, Methyl 4-hydroxy-1-[4-(7-methyl-5H-pyrazolo[4,3-e]tetrazolo[4,5-b][1,2,4]triazyn-5-yl)phenylsulfonyl]pyrrolidine-2-carboxylate] | 17.0 | 32.1 | 43.9 | 7.0 | 49.1 | 1.7 | 80.8 | 11.0 | 6.5 | 14.5 | 16.0 | 65.0 | 4.5 | 25.2 | 13.7 | 2.6 | 26.9 | 81.0 | Necrosis ([1]; DLD-1, 1.5 μM, listed as compound of Formula 3): 7.0%; Early apoptosis [1, 5]: 1.7%; Late apoptosis [1, 5]: 80.8%; Necrosis [1, 5]: 6.5%; early and late apoptotic cells (total) ([2]; HT-29, 1.5 μM): 30.5%; Necrosis ([2]; HT-29, 1.5 μM, listed as compound of Formula 3): 4.5% |
